Columns and labels:
melanoma 16 = format: in vivo, mice; conditions: for mice survived as far as the 36th day: control sub groups of 10 mice, 5 mg in water solution as a drink; for findings during the dissection: first and second sub group of the control group, 5 mg as a drink
Experimental: B57 type mice in the test and control group (60 mice each) were injected with melanoma 16. The test group were divided into 6 sub groups and the control group was divided into 3 sub groups, each with 10 mice.

[1] = tested on: human malignant melanoma A 375; test: replication of melanoma cells in test glasses; format: cell-based; conditions: a week at 37° C. in the dark, in comparison to physiological salt solution
Experimental: In addition, a third control group of test glasses (6 glasses) was formed with the same cancer cell pool and fibroblasts, into which adriamycin and cyclophosphan in the same dilution was introduced, as well as a corresponding test glass group with a physiological salt solution.
After thermostatization of the above-mentioned test glasses for a week at 37° C. (in the dark), the contents were analyzed.

papillary thyroid cancer = test: treatment of patient R, papillary thyroid cancer; format: in vivo, human
Experimental: The patient was treated with the medicinal agent (B.V.2) for 2 weeks; one gelatine capsule two times a day with 20 mg medicinal agent perorally after food and enemas in a single dose of 100 ml solution, comprising 50 mg medicinal agent powder, diluted in 2 ml 70% ethyl alcohol and dissolved in 100 ml water solution with 0.9% NaCl.

[2] = tested on: cancer of the right ovary (recidiv); test: treatment of patient I, recidiv of ovary cancer; format: in vivo, human
Experimental: Exstirpation of the uterus and the surrounding area on account of cancer of the right ovary was performed on patient I who was […] and had visited the doctor in November 2002. The tomogram that was dated 28 Aug.
The patient was treated with an enema of the rectum: over five days once a day, after five procedures once every other day and thereafter every third day for 15 enemas. They were treated with a single dose of 20 mg medicinal agent (B.V.2) per 15-20 ml water, diluted in 2 ml 70% ethyl alcohol.

[3] = 3 hours after taking the dose, over 7 days

| Compound | mice survived as far as the 36th day (melanoma 16) [mice] | findings during the dissection (melanoma 16) | suppression of the replication of the melanoma cells ([1]; dilution of 10^−7 mmol/l) [%] | suppression of the replication of the melanoma cells ([1]; dilution of 10^−9 mmol/l) [%] | duration of the dissymmetric effect (papillary thyroid cancer) [h] | ultrasound investigation after the treatment (papillary thyroid cancer; 2 weeks, capsules 20 mg two times a day and enemas 50 mg, growth 5×3×1.7 cm before) | temperature on the left side of the body (dissymmetric effect) (papillary thyroid cancer; [3]) | temperature on the right side of the body (dissymmetric effect) (papillary thyroid cancer; [3]) | growth in control investigation using ultrasound ([2]; 2 Mar. 2004) | erythrocytes ([2]; after the treatment, before 2.5 million) [million] | thrombocytes ([2]; after the treatment, before 110,000) | leucocytes ([2]; after the treatment, before up to 10,000) |
| --- | --- | --- | --- | --- | --- | --- | --- | --- | --- | --- | --- | --- |
| COc1cccc2c1C(=O)c1c(O)c3c(c(O)c1C2=O)C[C@@](O)(C(=O)CO)C[C@@H]3O[C@H]1C[C@H](N)[C@H](O)[C@H](C)O1 [adriamycin] | 2 | lung and liver injuries | 42 | 30 |  |  |  |  |  |  |  |  |
| O=P1(N(CCCl)CCCl)NCCCO1 (stereo not shown) [cyclophosphan] | 5 | lung and liver injuries | 55 | 35 |  |  |  |  |  |  |  |  |
| hexamethyl pararosanilin chloride [methyl violet 10B] |  |  |  |  | 1.0 to 1.5 | a primary growth and no metastases | 37.3-38.6 °C | 35.4-36.9 °C | no longer to be found | 5.5 | 300,000 | 9,000 |

From patent US20100280125A1, “MEDICINAL AGENT” (priority 2004, published 2010)
